# ChEMBL document CHEMBL3507680, “University of Dundee, Gates Library screen for HepG2 cell viability”
# Experiment: Human HepG2 cell viability assay in 384 well format
# Type: toxicity, cell-based
# Parameters: dose 125 nL, time 70.5 hour; concentration not given beside the values
# Details: HepG2 cells, read-out: Inhibition
row,Structure (SMILES),cytotoxicity at 70.5 h [%]
1,c1cnc(N2CCN(CCn3ccnc3-c3c[nH]cn3)CC2)nc1,-6.35
2,COCCN(C)CC(=O)N1CCCC2(CCC(=O)N(CC3CC3)C2)C1 (centres undefined),-27.5
3,O=C(OCc1cccc(F)c1)c1cccc(C(=O)N2CCCC2)n1,-1.08
4,Cc1cc(CN2CCC(c3ccnn3CCO)CC2)no1,-15.5
5,CN(Cc1csc(-c2cccs2)n1)Cc1cccnc1N,-14.6
6,O=C(C1CN(c2ncc(F)cn2)CC12CCOCC2)N1CCOCC1 (centres undefined),-9.96
7,Clc1cc(N2CCN3CCCCC3C2)nc2[nH]ccc12 (centres undefined),-0.311
8,COc1ccc(C(=O)N(C2CC2)C2CC(=O)NC2=O)cc1 (centres undefined),-2.33
9,Cc1cc(NCCO)nc(N2CCCC2)c1C#N,2.8
10,CC(O)CN1CCC(CN(C)CC(=O)NC2CCOCC2)CC1 (centres undefined),-2.54
11,CN(Cc1ccccn1)CC1CCCN1c1cccnn1 (centres undefined),-5.71
12,COC[C@H]1CC[C@@H]2[C@@H](CCN2Cc2ccco2)O1,20.4
13,Cc1ccc(C)c2c(C)c(C(=O)NCCC(=O)N3CCOCC3)oc12,-10.6
14,Cn1c(Cl)cnc1CN1CCCC1c1ccc2c(c1)OCCO2 (centres undefined),19.4
15,N[C@@H]1CC[C@H](C(=O)NCCc2nc(-c3ccccc3)cs2)C1,-1.72
16,CC(C)c1nccn1CC1CCCN1Cc1nc2ccccc2n1C (centres undefined),-10.4
17,CC(C)c1cc(C(=O)NCCn2nc3ccccn3c2=O)n[nH]1,-4.09
18,O=S(=O)(Cc1ccccc1)CC(O)Cn1cccn1 (centres undefined),-2.14
19,Cc1cc(C)c(S(N)(=O)=O)cc1C(=O)NCCN1CCCCC1,-16.1
20,Cn1cnnc1C1CCCN(C(=O)c2cc(C3CC3)on2)C1 (centres undefined),-10.9
21,CC(C)C(O)CNC(=O)Nc1cnn(C(C)C)c1 (centres undefined),-8.43
22,O=C(c1cc(-n2cccc2)ccc1Cl)N1CCC2(CC1)OCCO2,2.22
23,Cc1cccc(CN2CCOC3(COCCN(CCN(C)C)C3)C2)n1 (centres undefined),-3.04

row,Structure (SMILES),cytotoxicity at 70.5 h [%]
1,NC(=O)N1Cc2nccn2CC(Cn2ncccc2=O)C1 (centres undefined),1.65
2,CSC(C)C(=O)NCCC(=O)N1CCN(c2ccccn2)CC1 (centres undefined),-3.28
3,O=C(c1ccco1)N1CCOCC2(C1)CN(c1ccoc1)C(=O)CO2 (centres undefined),-10
4,Cc1cc(O)c(OCC(=O)/N=c2/[nH]c3c(s2)CCC3)cn1,-14.7
5,O=C(CCn1ccccc1=O)N1CCCC(COc2ccc(F)cc2)C1 (centres undefined),-7.1
6,CC(Oc1ccc(C(=O)NCCNS(C)(=O)=O)cn1)c1ccccc1 (centres undefined),-8.66
7,Cc1nnc(N2CCCC3(CN(Cc4nccs4)CCO3)C2)o1 (centres undefined),34.9
8,Cc1nn(C)c(C)c1NC(=O)CN1CCCC1c1noc(C(C)C)n1 (centres undefined),-5
9,COc1ccc(Cl)cc1CN(C)C(=O)CN1C(=O)CCC1C (centres undefined),-9.27
10,COCc1ccccc1CNC(=O)CNc1ccccc1C(C)=O,2.64
11,c1ccc(N2CCCC3(CCN(Cc4nccs4)C3)C2)nc1 (centres undefined),6.32
12,OCC1CCCN1c1cc(N2CCc3ccccc3C2)ncn1 (centres undefined),31.1
13,Cc1[nH]c2c(F)cccc2c1CC(=O)NC1CCCCNC1=O (centres undefined),24.9
14,CN1C(=O)CC2(CCN(S(=O)(=O)C3CC3)CC2)c2ccccc21,7.41
15,COc1cccc(C(=O)NCC(c2cccn2C)N2CCCC2)c1OC (centres undefined),3.39
16,O=C(CN1CCc2sccc2C1)Nc1nccs1,-18.3
17,Cc1nccn1[C@@H]1CC[C@@H](N(C)S(=O)(=O)c2cccc(F)c2)[C@H]1O,-0.727
18,CC(=O)N1CCCn2nc(CNS(=O)(=O)N(C)C(C)C)cc2C1,-14.6
19,O=C(NCCO)Nc1c(F)cccc1Oc1ccccc1,-7.66
20,CCn1nc(CNC(=O)C2CC(=O)N(C3CCCC3)C2)c2ccccc21 (centres undefined),13.8
21,O=C(CNc1ccc(OC2CCOC2)cc1)NCc1ccc(F)cc1 (centres undefined),-10.9
22,CCc1nnc(N2CCN(c3ccccc3)C(=O)C2)o1,-7.77
23,O=C(CN1CC(c2ccccc2)CC1=O)N1CCC(c2ncc[nH]2)CC1 (centres undefined),-4.48

row,Structure (SMILES),cytotoxicity at 70.5 h [%]
1,Cc1cc(F)ccc1S(=O)(=O)NCc1cccc(C(=O)N2CCCC2)c1,-14.8
2,Cn1cc(C(=O)N2CCCC(c3cc(O)n(C)n3)C2)cn1 (centres undefined),7.43
3,COc1cccc(OC)c1CC(=O)NC(C#N)c1ccsc1 (centres undefined),-12.5
4,O=C(NCCc1cccs1)N1CCCC2(CCC(=O)N(C3CC3)C2)C1 (centres undefined),-0.67
5,Cc1nc(CN2CC[C@H](OCC3CC3)[C@@H]2Cc2cccnc2)cs1,-1.82
6,CC(=O)N(Cc1ncc(C)o1)C1CCN(CCOc2ccccc2)C1 (centres undefined),17.4
7,Cc1cc(C)n(C2CCN(c3ncnc4c3CCNCC4)C2)n1 (centres undefined),-9.03
8,CCN(Cc1cccc2c1OCO2)C(=O)Nc1ccccn1,-9.07
9,O=C(NCC1=CCCCC1)C(c1cccnc1)N1CCOCC1 (centres undefined),-1.14
10,CC(C)NC(=O)N1CCN(S(=O)(=O)C2CC2)CC2(CNC(=O)C2)C1 (centres undefined),1.9
11,CN(CC(=O)N1CCN(c2ccccc2F)CC1)c1cnccn1,-18.2
12,CCn1c(C)nnc1SCCNC(=O)CC1CCc2ccccc21 (centres undefined),-18.5
13,COc1cccc(S(=O)(=O)NC(=O)CCC2CCCC2)c1,-8.64
14,O=C(c1cnc(COc2ccccc2)nc1O)N1CCOCC1,-5.87
15,CCOc1ccccc1NC(=O)NCC(C)(O)CCSC (centres undefined),-3.88
16,CN(CCc1ccccn1)C(=O)c1cn2c(n1)CNCC2,-8.81
17,COc1ccc(C)cc1-n1cnnc1C1CCOCC1,-2.32
18,Cc1cc(C(=O)NCc2c(C)nn(C)c2C)nc(N2CCCC2)n1,-3.65
19,Cc1ccnc2c1NC(=O)CN2C(=O)CCc1cccs1,-5.29
20,O=C1CC(c2ccc(O)cc2)c2c(n3ccsc3nc2=O)N1 (centres undefined),-29.2
21,CCc1nccn1-c1cccc(C2CCN(C(=O)COC)CC2)n1,0.0936
22,CCOCCn1nc(C2CCNCC2)n(Cc2ccccc2)c1=O,3.02
23,O=C(NC1CC1)[C@H]1CN(Cc2ccc3c(c2)OCO3)C[C@H]2OCC[C@@H]12,-1.23

row,Structure (SMILES),cytotoxicity at 70.5 h [%]
1,COc1ccc(NC(=O)NC(C)Cc2ccco2)cn1 (centres undefined),-11.4
2,O=C1CCC2(CCN(Cc3ncccn3)CC2)CN1CCCO,-8.14
3,CN1CCCC[C@@H]2[C@H]1[C@@H](c1ccccc1)CCN2S(=O)(=O)N1CCCC1,-1.85
4,Cc1ccc2[nH]c(C(=O)N3CCCC3Cn3cccn3)cc2c1 (centres undefined),4.08
5,CC1=N[C@@]2(CC[C@@H]3CN(CC4CC4)C[C@@H]32)C(=O)N1CC1CC1,-13.6
6,Cc1cnn(CC2CN(Cc3ccc(-n4cccn4)cc3)CCO2)c1 (centres undefined),-0.9
7,O=C(c1ccco1)N1CCCC(c2cc(C(F)F)n3ncnc3n2)C1 (centres undefined),-14.3
8,CN(C)C(=O)C1(Oc2ccc(Cl)cc2)CCNCC1,-3.42
9,CC(C)c1ccc(NS(=O)(=O)CC2=NC(=O)n3cccc3C2=O)cc1,-18.1
10,CC(C)N(C)Cc1cnc2n1CCN(Cc1cccc(F)c1)C2,-4.8
11,Cc1nnc(CN2CCC(c3nc4cc(Cl)ccc4o3)CC2)n1C,-18.9
12,CN(CCNC(=O)NCc1ccsc1)C1CCCC1,-8.28
13,NC(=O)c1cccc(-c2cnc(C3CCCNC3)cn2)c1 (centres undefined),-7.33
14,COCC(=O)NC1CC2(CCN(CC3CC3)CC2)Oc2ccccc21 (centres undefined),18.1
15,O=S(=O)(Cc1ccc(F)cc1)N1CCN(CC(O)C2CC2)CC1 (centres undefined),-1.75
16,CC(C)Nc1ncnc2c1CCN(C(=O)Cc1ccccn1)CC2,26.6
17,Cc1ccc(C(=O)N(C)Cc2csc(C)n2)c(=O)[nH]1,1.68
18,Cc1ccc(CCNC(=O)Cn2nc(C)n(Cc3ccccc3)c2=O)o1,19.8
19,COc1cccc(CNC(=O)CCC2=Nc3ccccc3S(=O)(=O)N2)c1,-1.77
20,Cc1ccc2[nH]c(=O)cc(C(=O)N[C@@H]3C[C@@H](CO)N(C)C3)c2c1,-14.7
21,Cc1ccc(N2CCCC(NCCCS(C)(=O)=O)C2)nn1 (centres undefined),-7.73
22,COc1ccc(Br)cc1S(=O)(=O)N(C)Cc1ccc(N(C)C)cc1,-3.08
23,CCc1csc(C2CCCN(C(=O)c3ccc(OC)nn3)C2)n1 (centres undefined),-9.56

row,Structure (SMILES),cytotoxicity at 70.5 h [%]
1,CCOc1ncccc1C(=O)N1CCCC1c1c(C)nn(C)c1OC (centres undefined),1.14
2,Cc1ccc(-c2c[nH]c([C@@H]3COCCN3Cc3ncc[nH]3)n2)cc1,6.46
3,Cc1cc(S(=O)(=O)Nc2cccc(-n3cccc3)c2)sc1C(=O)O,-13
4,CC(C)CN1CCC2(C=C(C(=O)NC3CC3)c3ccccc32)CC1,-11.9
5,c1cnn(CC2CN(c3ncnc4ccsc34)CCO2)c1 (centres undefined),-0.0557
6,Cc1nnc2n1CCN(C(=O)CN1C(=O)C(C)Oc3ccccc31)C2 (centres undefined),-7.32
7,Cc1cc(-c2ccc(=O)n(C3CCN(C(=O)C4CCC4)CC3)n2)c(C)o1,1.9
8,COc1cc(Oc2ncccc2C(F)(F)F)ccc1CN1CCCC1,4.5
9,COc1cccc(NC(=O)CNc2ccc(C(=O)N(C)C)c(Cl)c2)c1,-4.79
10,Cc1ccc(C(C(=O)N(C)CCc2cn[nH]c2)N(C)C)cc1 (centres undefined),-8.45
11,CN1CCCN(C(=O)c2nnn(-c3ccc(C(F)(F)F)cc3)n2)CC1,-4.86
12,O=C(c1cnccn1)N1CCc2onc(CN3CCCC3)c2C1,1.69
13,O=C(Nc1ccccn1)c1csc(NC2CCCC2)n1,1.59
14,CNC(=O)c1cc(C)ccc1NCc1cn2cc(C)ccc2n1,-2.87
15,COc1ncccc1CNCc1c(C)nn(C)c1N(C)C,19.7
16,CCC(=O)N1CCC2(CC1)COCCN2Cc1ccc(F)cc1,-10.7
17,O=C1CC2(CCN(CC3CC3)C2)CN1c1ccc2c(c1)OCO2 (centres undefined),3.77
18,CC(C)N1CCC(N2CCN(C3CCC3)CC2CCO)CC1 (centres undefined),-9.59
19,FC(F)(F)c1cccc(C2(CNCc3cc[nH]c3)CCOCC2)c1,-3.76
20,COc1ccnc(CN(C)C(=O)CSc2nnc(N)s2)c1,-5.2
21,COC(=O)CCc1c(C)nn(-c2nc(C)cc(=O)[nH]2)c1C,36.4
22,Oc1cc(CN2CCCCC2c2cccnc2)nc2c(F)cccc12 (centres undefined),-2.95
